Reference: patent US8753652B2, “Pharmaceutical composition including a DHA ester to be administered parenterally” (Pierre Fabre Medicament, priority 2009, dated 2014)

How the values were obtained:
[1] = Lipophilicity (Log P) of the nicotinic ester of DHA; assay type: physicochemical
Protocol: (§1) It is a very lipophilic compound (Log P approximately 7), wherein the solubility at equilibrium in water is <1 μg/ml. It is thus particularly difficult to formulate for parenteral administration.

[2] = Solubility at equilibrium in water; assay type: physicochemical; details: thermodynamic from solid
Protocol: as §1

- logP [1]: ~7
- solubility [2]: < 1 µg/mL
Compound: CC/C=C\C/C=C\C/C=C\C/C=C\C/C=C\C/C=C\CCC(=O)OCc1cccnc1 [nicotinic ester of DHA, pyridin-3-ylmethyl-cis-4,7,10,13,16,19-docosahexaenoic acid]
